Earlier results as cited in patent US20060167069A1, “Pharmaceutical composition of metaxalone with enhanced oral bioavailability” (Sun Pharmaceutical Industries Ltd., priority 2002, published 2006).

Details: prior art statement

## Cc1cc(C)cc(OCC2CNC(=O)O2)c1 (stereo not shown) [Metaxalone, 5-(3,5-dimethylphenoxymethyl)-2-oxazolidinone]
  aqueous solubility: low aqueous solubility
